Measurements as given in publication PMC11589570, “Critical assessment of LC3/GABARAP ligands used for degrader development and ligandability of LC3/GABARAP binding pockets” (Nature Communications, 2024).
Where “and” joins values, the source holds several entries; their conditions need not be identical. Equal entries are not always repeated.

Columns and labels:
LC3A [1] = target: T1, LC3A (Homo sapiens, UniProt Q9H492); assay: Spectral shift assay (Dianthus), cysteine-labelled protein; assay type: binding; details: Repeat 1 and Repeat 2, listed as 8F20 (3)
Protocol: Affinity determination using spectral shift mode on Dianthus: To determine dissociation constants, the Dianthus instrument (NanoTemper Technologies GmbH, Germany) was used to monitor molecular interactions. […] Protein was labelled with RED-maleimide 2nd Generation (cat# MO-L014; NanoTemper Technologies GmbH). Labeling was carried out following the manufacturer protocol, using a 3:1 ratio dye:protein. […] Protein was purified in 30 mM HEPES, 100 mM NaCl, 0.05% Tween, pH 7.5. […] Measurements were performed in spectral shift mode with an LED excitation power of 100%. Data were analyzed using the DI.Screening Analysis Software (v.2.0.4) (NanoTemper Technologies GmbH, Germany) and quality criteria values including Δ Ratio, Signal-to-Noise-Ratio, Fit Saturation and KD values were determined.

LC3A [2] = target: T1, LC3A; assay: FP assay with 10O5- and 8F20-based dye-linked tracers 16 and 17; details: LC3A; compound 3 for tracer 17, compound 4 for tracer 16
Description: (§2) The only experimental difference in our FP assay setup was the addition of 0.05% Tween-20, which is routinely used[27] to suppress unspecific binding of compounds to proteins.
(§3) Fluorescence polarization assay utilizing tracers 16 and 17 for interaction studies with LC3A
(§4) (upper panels) and LC3B (lower panels). The left panels depict protein titration measurements
(§5) detergent in the buffer to suppress unspecific binding. Middle panels depict displacement
Data were collected in technical
(§6) triplicates with error bars expressing the SD (n=3).

LC3B [3] = target: T2, LC3B (Homo sapiens, UniProt Q9GZQ8); assay: FP assay with Cy5-labelled p62 LIR tracer (protein titration and tracer displacement); assay type: binding; details: for normalized FP signal, p62 LIR tracer displacement: LC3B; for compound titration LC3B (displacement curve, FP signal): two replicate columns per compound
LC3A [4] = target: T1, LC3A; assay: as above; assay type: binding; details: LC3A
[5] = Cell viability measurements; assay type: cell-based; design: Cell viability: scale not given here; details: two replicate columns; for Cell viability: listed as 8F20
Description: 1 Source data for Supplementary Fig. 8a-f are provided as a Source Data file.

LC3B [6] = target: T2, LC3B; assay: FP assay with 10O5- and 8F20-based dye-linked tracers 16 and 17; details: LC3B; compound 3 for tracer 17, compound 4 for tracer 16
Description: as §2, §3, §4, §5
Data were collected in technical
as §6

[7] = target: T3, NanoLuc-fusion full-length LC3A (Homo sapiens, UniProt Q9H492); assay: NanoBRET cellular target engagement assay in HEK293T cells; assay type: cell-based; details: LC3A; 1 µM tracer; compound 4 for tracer 16, compound 3 for tracer 17
T3 construct: a fluorescent donor (in this case full length LC3A and LC3B); expressed in transfected cells; host or cells: HEK293T (ATCC; CRL-11268)
Protocol: (§1) NanoBRET cellular target engagement assay: Constructs contained the cDNA of full-length LC3A and LC3B cloned in frame with an N-terminal NanoLuc-fusion. Plasmids were transfected into HEK293T (ATCC; CRL-11268) cells using FuGENE HD (Promega, E2312) and proteins were allowed to express for 20 h. 10O5 and 8F20-based tracers were titrated to the protein as depicted in Supplementary Fig. 4d. For competition experiments, 1 µM of the tracers was pipetted into white 384-well plates (Greiner 781 207) using an Echo 550 acoustic dispenser (Labcyte) containing LC3A/LC3B expressing transfected cells at a density of 2.5 × 10^5 cells/mL in Opti-MEM without phenol red (Life Technologies). The system was allowed to equilibrate for 2 h at 37 °C and 5% CO2 prior to BRET measurements. To measure BRET, NanoBRET NanoGlo Substrate + Extracellular NanoLuc Inhibitor (Promega, N2540) was added as per the manufacturer’s protocol, and filtered luminescence was measured on a PHERAstar plate reader (BMG Labtech) equipped with a luminescence filter pair (450 nm BP filter (donor) and 610 nm LP filter (acceptor)). Competitive displacement data were then plotted using GraphPad Prism 9.3 software using a normalized 3-parameter curve fit. A detailed step-by-step protocol for this assay is described in Schwalm..

[8] = target: T4, NanoLuc-fusion full-length LC3B (Homo sapiens, UniProt Q9GZQ8); assay: as above; assay type: cell-based; details: LC3B; 1 µM tracer; compound 4 for tracer 16, compound 3 for tracer 17
T4 construct: a fluorescent donor (in this case full length LC3A and LC3B); expressed in transfected cells; host or cells: HEK293T (ATCC; CRL-11268)
Protocol: as §1

[9] = log10 concentration [M] -3.82391
[10] = log10 concentration [M] -4.1549
[11] = log10 concentration [M] -4.60206
[12] = log10 concentration [M] -5.30103
[13] = log10 concentration [M] -5.69897
[14] = log10 concentration [M] -6.22185
[15] = log10 concentration [M] -6.69897
[16] = log10 concentration [M] -7.30103
[17] = log10 concentration [M] -7.79588
[18] = log10 concentration [M] -8.08092

Cc1ccc(C(=O)N(CCCN)[C@@H](c2nc3cc(Cl)ccc3c(=O)n2Cc2ccccc2)C(C)C)cc1 [compound 3, (R)-N-(3-aminopropyl)-N-(1-(3-benzyl-7-chloro-4-oxo-3,4-dihydroquinazolin-2-yl)−2-methylpropyl)−4-methylbenzamide]
Initial Fluorescence (LC3A [1]; compound 15.2588 nM titrated against LC3A): 10115.139 and 10590.376
Initial Fluorescence (LC3A [1]; compound 30.5176 nM titrated against LC3A): 10801.294 and 10751.715
Initial Fluorescence (LC3A [1]; compound 61.0352 nM titrated against LC3A): 10969.053 and 11514.474
Initial Fluorescence (LC3A [1]; compound 122.07 nM titrated against LC3A): 10805.714 and 11350.170
Initial Fluorescence (LC3A [1]; compound 244.141 nM titrated against LC3A): 12437.260 and 12829.142
Initial Fluorescence (LC3A [1]; compound 488.281 nM titrated against LC3A): 11460.432 and 11424.556
Initial Fluorescence (LC3A [1]; compound 976.562 nM titrated against LC3A): 11304.154 and 11789.590
Initial Fluorescence (LC3A [1]; compound 1953.12 nM titrated against LC3A): 11136.164 and 11540.347
Initial Fluorescence (LC3A [1]; compound 3906.25 nM titrated against LC3A): 11540.226 and 11678.705
Initial Fluorescence (LC3A [1]; compound 7812.5 nM titrated against LC3A): 12368.631 and 13118.831
Initial Fluorescence (LC3A [1]; compound 15625 nM titrated against LC3A): 13549.037 and 11303.453
Initial Fluorescence (LC3A [1]; compound 31250 nM titrated against LC3A): 12093.613 and 11816.274
Initial Fluorescence (LC3A [1]; compound 62500 nM titrated against LC3A): 12824.797 and 12883.571
Initial Fluorescence (LC3A [1]; compound 125000 nM titrated against LC3A): 12380.010 and 12980.949
Initial Fluorescence (LC3A [1]; compound 250000 nM titrated against LC3A): 12405.646 and 13536.280
displacement of dye-linked tracer by parent compound (LC3A [2]): no displacement
normalized FP signal, p62 LIR tracer displacement (LC3B [3]; [9]): 79.4737 and 100.789
normalized FP signal, p62 LIR tracer displacement (LC3B [3]; [10]): 91.0526 and 93.9474
normalized FP signal, p62 LIR tracer displacement (LC3B [3]; [11]): 98.6842 and 96.3158
normalized FP signal, p62 LIR tracer displacement (LC3B [3]; log10 concentration [M] -5): 92.3684 and 100.263
normalized FP signal, p62 LIR tracer displacement (LC3B [3]; [12]): 95.7895 and 96.5789
normalized FP signal, p62 LIR tracer displacement (LC3B [3]; [13]): 95.5263 and 96.0526
normalized FP signal, p62 LIR tracer displacement (LC3B [3]; [14]): 92.1053 and 92.3684
normalized FP signal, p62 LIR tracer displacement (LC3B [3]; [15]): 97.6316 and 96.5789
normalized FP signal, p62 LIR tracer displacement (LC3B [3]; [16]): 93.1579 and 99.7368
normalized FP signal, p62 LIR tracer displacement (LC3B [3]; [17]): 100.263 and 96.8421
normalized FP signal, p62 LIR tracer displacement (LC3B [3]; [18]): 95.2632 and 96.3158
compound titration LC3B (displacement curve, FP signal) (LC3B [3]; [9]): 79.4737 and 100.789
compound titration LC3B (displacement curve, FP signal) (LC3B [3]; [10]): 91.0526 and 93.9474
compound titration LC3B (displacement curve, FP signal) (LC3B [3]; [11]): 98.6842 and 96.3158
compound titration LC3B (displacement curve, FP signal) (LC3B [3]; log10 concentration [M] -5): 92.3684 and 100.263
compound titration LC3B (displacement curve, FP signal) (LC3B [3]; [12]): 95.7895 and 96.5789
compound titration LC3B (displacement curve, FP signal) (LC3B [3]; [13]): 95.5263 and 96.0526
compound titration LC3B (displacement curve, FP signal) (LC3B [3]; [14]): 92.1053 and 92.3684
compound titration LC3B (displacement curve, FP signal) (LC3B [3]; [15]): 97.6316 and 96.5789
compound titration LC3B (displacement curve, FP signal) (LC3B [3]; [16]): 93.1579 and 99.7368
compound titration LC3B (displacement curve, FP signal) (LC3B [3]; [17]): 100.263 and 96.8421
compound titration LC3B (displacement curve, FP signal) (LC3B [3]; [18]): 95.2632 and 96.3158
normalized FP signal, p62 LIR tracer displacement (LC3A [4]; log10 concentration [M] -3.82391, listed as 8F20): 97.3684 and 104.737
normalized FP signal, p62 LIR tracer displacement (LC3A [4]; log10 concentration [M] -4.1549, listed as 8F20): 102.105 and 103.947
normalized FP signal, p62 LIR tracer displacement (LC3A [4]; log10 concentration [M] -4.60206, listed as 8F20): 101.053 and 106.053
normalized FP signal, p62 LIR tracer displacement (LC3A [4]; log10 concentration [M] -5, listed as 8F20): 99.7368 and 100.789
normalized FP signal, p62 LIR tracer displacement (LC3A [4]; log10 concentration [M] -5.30103, listed as 8F20): 102.105 and 98.4211
normalized FP signal, p62 LIR tracer displacement (LC3A [4]; log10 concentration [M] -5.69897, listed as 8F20): 97.6316 and 96.0526
normalized FP signal, p62 LIR tracer displacement (LC3A [4]; log10 concentration [M] -6.22185, listed as 8F20): 102.632 and 94.2105
normalized FP signal, p62 LIR tracer displacement (LC3A [4]; [15]): 101.053
normalized FP signal, p62 LIR tracer displacement (LC3A [4]; log10 concentration [M] -6.69897, listed as 8F20): 99.7368
normalized FP signal, p62 LIR tracer displacement (LC3A [4]; log10 concentration [M] -7.30103, listed as 8F20): 103.947 and 101.316
normalized FP signal, p62 LIR tracer displacement (LC3A [4]; [17]): 98.4211
normalized FP signal, p62 LIR tracer displacement (LC3A [4]; log10 concentration [M] -7.79588, listed as 8F20): 93.9474
normalized FP signal, p62 LIR tracer displacement (LC3A [4]; [18]): 102.105
normalized FP signal, p62 LIR tracer displacement (LC3A [4]; log10 concentration [M] -8.08092, listed as 8F20): 93.9474
viability at 20 µM ([5]; log concentration [M] -4.69897): 0.689%
Cell viability ([5]; log concentration [M] -4.69897): 1.283
viability at 7.5 µM ([5]; log concentration [M] -5.12494): 91.3%
Cell viability ([5]; log concentration [M] -5.12494): 92.2351
viability at 2.5 µM ([5]; log concentration [M] -5.60206): 96.5%
Cell viability ([5]; log concentration [M] -5.60206): 100.107
viability at […] ([5]; log concentration [M] -6.00436): 93.4%
Cell viability ([5]; log concentration [M] -6.00436): 93.5465
viability at 0.3 µM ([5]; log concentration [M] -6.52288): 103%
Cell viability ([5]; log concentration [M] -6.52288): 93.076
viability at 0.125 µM ([5]; log concentration [M] -6.90309): 105%
Cell viability ([5]; log concentration [M] -6.90309): 93.9495
viability at 0.05 µM ([5]; log concentration [M] -7.30103): 102%
Cell viability ([5]; log concentration [M] -7.30103): 103.3
viability at 0.01625 µM ([5]; log concentration [M] -7.78915): 96.5%
Cell viability ([5]; log concentration [M] -7.78915): 90.0205
viability at […] ([5]; log concentration [M] -8.06399): 103%
Cell viability ([5]; log concentration [M] -8.06399): 92.6947
viability at 0.005 µM ([5]; log concentration [M] -8.30103): 99.5%
Cell viability ([5]; log concentration [M] -8.30103): 91.472
viability at 0.0021 µM ([5]; log concentration [M] -8.67778): 99.1%
Cell viability ([5]; log concentration [M] -8.67778): 90.5247
displacement of dye-linked tracer by parent compound (LC3B [6]): no displacement
NanoBRET signal / tracer displacement [7]: No displacement
NanoBRET signal / tracer displacement [8]: No displacement
